Data from paper PMC9906756 (2023).

Key:
Experiment in all cases: luminescence titration
[1] = system: 22AG (DNA, G4) AGGGTTAGGGTTAGGGTTAGGG; details: 100 mM KCl, 10 mM potassium phosphate; pH 7; 10 μM Ru-PDC3; per G4 strand; site size 0.5
[2] = system: K-ras (DNA, G4) AGGGCGGTGTGGGATAGGGAA; details: 100 mM KCl, 10 mM potassium phosphate; pH 7; 10 μM Ru-PDC3; per G4 strand; site size 0.5
[3] = system: A13 (DNA, single strand) AAAAAAAAAAAAA; details: 100 mM KCl, 10 mM potassium phosphate, pH 7, 10 μM Ru-PDC3, per base, site size 0.5, Table S2 prints 2.3±1.2 × 10^6
[4] = system: T13 (DNA, single strand) TTTTTTTTTTTTT; details: 100 mM KCl, 10 mM potassium phosphate, pH 7, 10 μM Ru-PDC3, per base, site size 1, Table S2 prints error 0.6
INTER (DNA, G4) TAGGGTTA = details: 100 mM KCl, 10 mM potassium phosphate; pH 7; 10 μM Ru-PDC3; concentration as G4 strand equivalent; site size 0.5
[5] = system: ds17 (DNA, duplex) CCAGTTCGTAGTAACCC/GGGTTACTACGAACTGG; details: 100 mM KCl, 10 mM potassium phosphate, pH 7, 10 μM Ru-PDC3, per base pair, site size 1
[6] = system: Pu24T (DNA, G4) TGAGGGTGGTGAGGGTGGGGAAGG; details: 100 mM KCl, 10 mM potassium phosphate; pH 7; 10 μM Ru-PDC3; per G4 strand; site size 0.5
[7] = system: TBA (DNA, G4) GGTTGGTGTGGTTGG; details: 100 mM KCl, 10 mM potassium phosphate; pH 7; 10 μM Ru-PDC3; per G4 strand; site size 0.5
[8] = system: ss17 (DNA, single strand) CCAGTTCGTAGTAACCC; details: 100 mM KCl, 10 mM potassium phosphate, pH 7, 10 μM Ru-PDC3, per base, site size 1

- Kb [1]: 2.2 ± 0.7 × 10^7 M^-1
- Kb [2]: 1.4 ± 0.1 × 10^7 M^-1
- Kb [3]: 2.2 ± 1.3 × 10^6 M^-1
- Kb [4]: 1.4 ± 0.5 × 10^6 M^-1
- Kb (INTER (DNA, G4) TAGGGTTA): 1.4 ± 0.2 × 10^7 M^-1
- Kb [5]: 1.9 ± 0.3 × 10^6 M^-1
- Kb [6]: 2.6 ± 0.1 × 10^6 M^-1
- Kb [7]: 5.6 ± 1.7 × 10^6 M^-1
- Kb [8]: 1.3 ± 0.4 × 10^6 M^-1
Compound: C[n+]1cc(NC(=O)c2ccc3c(n2)c2nc(C(=O)Nc4cc5ccccc5[n+](C)c4)ccc2c2nc4c5cccnc5c5ncccc5c4nc32)cc2ccccc21.[Ru+2].c1cnc2c(c1)ccc1cccnc12.c1cnc2c(c1)ccc1cccnc12
